Measured values: ChEMBL document CHEMBL4385648 (Bioorg Med Chem, 2019)

Legend:
[1] = Inhibition of Influenza A virus (A/Babol/36/2005 (H3N2) neuraminidase expressed by HEK293 cells incubated for 1 hr using 4-MU-NANA substrate by spectrofluorometric assay; type: cell-based
Neuraminidase = Neuraminidase (Influenza A virus, UniProt B4URF0); test: Inhibition of Influenza A virus (A/Anhui/1/2013 (H7N9) neuraminidase expressed by HEK293 cells incubated for 1 hr using 4-MU-NANA substrate by spectrofluorometric assay; type: cell-based

Structure (SMILES)	IC50 ([1]; read-out: IC50) [µM]	IC50 (Neuraminidase; read-out: IC50) [µM]	IC50 [1]	IC50 (Neuraminidase; hek293)
CCCC(=O)c1c(O)c(C=O)c(O)c(Cc2c(O)c(C=O)c(O)c(C(=O)CCC)c2O)c1O	9.8	2.5		
CCCC(=O)c1c(O)cc(O)c(CC2=C(O)C(C)(C)C(O)=C(C(C)=O)C2=O)c1O	5.6	1.6		
CCCC(=O)c1c(O)c(CC2=C(O)C(C)(C)C(O)=C(C(C)=O)C2=O)c(O)c(Cc2c(O)c(CC3=C(O)C(C)(C)C(O)=C(C(C)=O)C3=O)c(O)c(C(=O)CCC)c2O)c1O	36.1	3.6		
CC(=O)C1=C(O)C(C)(C)C(O)=C(CC2=C(O)C(C)(C)C(O)=C(C(C)=O)C2=O)C1=O			Not Active	Not Active
CCOC(=O)C1=C[C@@H](OC(CC)CC)[C@H](NC(C)=O)[C@@H](N)C1 [OSELTAMIVIR]	0.1			
